Patent US7572818B2, “2-pyridylethylbenzamide derivative” (Bayer Cropscience S.A., priority 2002, dated 2009)

What was measured:
Alternaria brassicae = assay: In vivo test of activity on Alternaria brassicae (crucifer black spot) on radish; conditions: preventive spray 24 h before inoculation
Pyrenophora teres = assay: In vivo test of activity on Pyrenophora teres (barley net blotch); conditions: preventive spray 24 h before inoculation
Procedure: In Vivo Test of Activity on Pyrenophora teres (Barley Net Blotch)
(§1) An aqueous solution of the active material to be tested is prepared at a concentration of 2 g/l by grinding in solution 1 or solution 2:
(§2) • Water • Tween 80 diluted to 10% in water: 5 μl/mg of active material • Clay in a sufficient amount for active material+clay to equal 100 mg; Solution 2
(§3) Concentrated solution containing surfactants and adjuvants conventionally used: 200 μl/mg of active material.
(§4) The aqueous solution is diluted with water so as to obtain the desired concentration.
Barley plants of the Express variety are sown in a 50/50 pozzolan/peat substrate and maintained at 12° C. The treatment is carried out at the 1-leaf stage (10 cm) by spraying the aqueous suspension. The untreated control plants are sprayed with water.
24 hours after treatment, the plants are inoculated by spraying a solution of Pyrenophora teres spores (10 000 spores/ml) originating from a 10-day culture.
The barley plants are then maintained at 18° C. in a humid atmosphere. The effectiveness of the products is evaluated relative to the control plants after eight to fifteen days of incubation.
(§5) The effectiveness of the molecules is estimated, at 500 g/ha, 250 g/ha or 330 ppm, by the percentage of control relative to untreated plants. Under these conditions, good effectiveness is defined as more than 80% effectiveness. Average effectiveness is defined as an effectiveness between 50 and 80%. Poor effectiveness is defined as an effectiveness between 10 and 50% and zero effectiveness is defined as less than 10% effectiveness.

Septoria tritici = assay: In vivo test of activity on Septoria tritici (wheat septoria disease); conditions: 500 g/ha, preventive spray 24 h before inoculation
Procedure: In Vivo Test of Activity on Septoria tritici (Wheat Septoria Disease
as §1, §2, §3, §4
Wheat plants of the Scipion variety are sown in a 50/50 pozzolan/peat substrate and maintained at 12° C. The treatment is carried out at the 1-leaf stage (10 cm) by spraying the aqueous suspension. The untreated control plants are sprayed with water.
24 hours after treatment, the plants are inoculated by spraying a solution of Septoria tritici spores (500 000 spores/ml) from a 7-day culture.
The wheat plantlets are then maintained at 18-20° C. in a humid atmosphere for 72 hours, and then at 90% relative humidity. The effectiveness of the products is evaluated relative to the control plants, 21 to 28 days after the contamination.
as §5

Botrytis cinerea = assay: In vivo test of activity on Botrytis cinerea on cucumber; conditions: preventive spray 24 h before inoculation
Procedure: In Vivo Test of Activity on Botrytis cinerea on Cucumber
as §1, §2, §3, §4
Cucumbers of the Marketer variety are sown in a 50/50 pozzolan/peat substrate and maintained at 18-22° C. The treatment is carried out by spraying the aqueous suspension. The untreated control plants are sprayed with water.
24 hours after treatment, the plants are inoculated by spraying a solution of Botrytis cinerea spores (150 000 spores/ml) originating from a 15-day culture.
The cucumber plants are then maintained at 11-15° C. in a humid atmosphere. The effectiveness of the products is evaluated relative to the control plants after seven to eight days of incubation.
as §5

Measured: effectiveness (percentage of control relative to untreated plants)

O=C(NCCc1ncc(C(F)(F)F)cc1Cl)c1ccccc1C(F)(F)F [Compound A-20]
good to average: Alternaria brassicae; 250 g/ha | Alternaria brassicae; 330 ppm | Alternaria brassicae; 500 g/ha | Pyrenophora teres; 250 g/ha | Pyrenophora teres; 330 ppm | Pyrenophora teres; 500 g/ha | Septoria tritici | Botrytis cinerea; 250 g/ha | Botrytis cinerea; 330 ppm | Botrytis cinerea; 500 g/ha

O=C(NCCc1ncc(C(F)(F)F)cc1Cl)c1c(F)cccc1F [Compound A-25]
good to average: Alternaria brassicae; 500 g/ha | Pyrenophora teres; 500 g/ha | Septoria tritici | Botrytis cinerea; 500 g/ha
